Test system: T1, Mm3 (β-lactamase from Moss metagenome clone 3; blaMm3)
T1 construct: mix of tagged 35 kDa and 32 kDa species lacking tag
Test: spectrophotometric hydrolysis at […] nm, initial rates
Format: biochemical, uncultured bacterium
Details: 20 mM sodium phosphate, 0.2 M NaCl, pH 7.4, 30 °C

`CC1(C)S[C@@H]2[C@H](NC(=O)C(C(=O)O)c3ccccc3)C(=O)N2[C@H]1C(=O)O` (some centres unmarked) [carbenicillin] was tested, and the Km (fitted with the Michaelis-Menten equation) was 400 ± 42.7 µM.
In the case of `CC1(C)S[C@@H]2[C@H](NC(=O)[C@H](N)c3ccccc3)C(=O)N2[C@H]1C(=O)O` [ampicillin], the Km (fitted with the Hill equation (half-saturation constant)) is reported as 271 ± 16.4 µM.

Reference: PMC8027415, “Plant resistome profiling in evolutionary old bog vegetation provides new clues to understand emergence of multi-resistance” (The ISME Journal, 2020)
